Measurements from US11236084B2, “Substituted azaindoline derivatives as NIK inhibitors” (Janssen Pharmaceutica NV, priority 2017, dated 2022).
Like-named read-outs stand apart in the source and are kept apart here.

Columns and labels:
[1] = test system: P-IKKα levels in L363 (NIK translocated multiple myeloma) cells; assay: Biological Assay C: effect of compounds on P-IKKα levels in L363 (NIK translocated multiple myeloma) cells, performed at 2 locations; format: cell-based, human; details: averaged values
Method: Effect of Compounds on P-IKKα Levels in L363 (NIK Translocated Multiple Myeloma) Cells
All compounds tested were dissolved in DMSO and further dilutions were made in culture medium. Final DMSO concentration was 1% (v/v) in cell assays. The human L363 cells (ATCC) were cultured in RPMI 1640 medium supplemented with GlutaMax and 10% fetal calf serum (PAA). Cells were routinely maintained at densities of 0.2×10^6 cells per ml-1×10^6 cells per ml at 37° C. in a humidified 5% CO2 atmosphere. Cells were passaged twice a week splitting back to obtain the low density. Cells were seeded in 96 well plates (Nunc 167008) at 2×10^6 per ml media in a volume of 75 μl per well plus 25 μl […] recombinant human B-cell activating factor (BAFF/BLyS/TNFSF13B). Seeded cells were incubated at 37° C. in a humidified 5% CO2 atmosphere for 24 hr. Drugs and/or solvents were added (20 μl) to a final volume of 120 μl. Following 2 hr treatment plates were removed from the incubator and cell lysis was achieved by the addition of 30 μl 5× lysis buffer followed by shaking on a plate shaker at 4° C. for 10 min. At the end of this incubation lysed cells were centrifuged at 800×g for 20 min at 4° C. and the lysate was assessed for P-IKKα levels by sandwich immuno-assay carried out in anti-rabbit antibody coated Mesoscale plates. Within an experiment, the results for each treatment were the mean of 2 replicate wells. For initial screening purposes, compounds were tested using an 8 point dilution curve (serial 1:3 dilutions). For each experiment, controls (containing MG132 and BAFF but no test drug) and a blank incubation (containing MG132 and BAFF and 1 μM ADS125117, a test concentration known to give full inhibition) were run in parallel. The blank incubation value was subtracted from all control and sample values. To determine the IC50 a sigmoidal curve was fitted to the plot of % inhibition of control P-IKKα levels versus Log10 compound concentration.
Assay C was performed at 2 different locations.
(§1) Data for the compounds of the invention in the above assays are provided in Table A (the values in Table are averaged values over all measurements on all batches of a compound; values as IC50 (nM)). (‘n.c.’ means not calculated: ‘Co.’ means compound)

[2] = biological target: T1, recombinant human NF-kappaB-inducing kinase (NIK/MAP3K14) (Homo sapiens, UniProt Q99558); assay: Biological Assay B: inhibition of auto-phosphorylation of recombinant human NIK/MAP3K14 (AlphaScreen), performed at 2 locations; format: biochemical; details: averaged values
Summary of the method: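 GST-tagged NIK (0.2 nM) auto-phosphorylation with 25 microM ATP in 50 mM Tris pH 7.5, 5 mM MgCl2, 1% DMSO, 1 h at 25° C. Anti-phospho-IKK Ser176/180 AlphaScreen readout; blank-subtracted IC50 from sigmoidal fit. Run at two sites.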

[3] = biological target: T1, recombinant human NF-kappaB-inducing kinase (NIK/MAP3K14); assay: Biological Assay A: inhibition of recombinant human NF-kappaB-inducing kinase (NIK/MAP3K14) activity (MBP phosphorylation, Mesoscale); details: MSD MBP; averaged over all measurements on all batches; read-out: Assay A Biochemical (MSD MBP) IC50
Method: Pharmacological Part Biological Assay A Inhibition of Recombinant Human NF-kappaB-Inducing Kinase (NIK/MAP3K14) Activity
Assay buffer was 50 mM Tris pH 7.5 containing 1 mM EGTA (ethylene glycol tetraacetic acid), 1 mM DTT (dithiothreitol), 0.1 mM Na3VO4, 5 mM MgCl2, 0.01% Tween® 20. Assays were carried out in 384 well Mesoscale high binding plates which had been coated with myelin basic protein (MBP) and blocked with bovine serum albumin to prevent non-specific protein binding. All compounds tested were dissolved in dimethyl sulfoxide (DMSO) and further dilutions were made in assay buffer. Final DMSO concentration was 1% (v/v) in assays. Incubations consisted of compound (1% DMSO in control and blank wells), 25 μM […] (ATP), and 10 nM NIK/MAP3K14 substituting enzyme with buffer in the blank wells. Incubations were carried out for 1 h at 25° C. and were followed by washing and sequential incubation with rabbit anti-phospho-MBP and anti-rabbit Ig Sulfotag antibody before reading bound Sulfotag on a Mesoscale Discovery. Signal obtained in the wells containing blank samples was subtracted from all other wells and […] were determined by fitting a sigmoidal curve to % inhibition of control versus Log10 compound concentration.
as §1

[4] = location 1, NIK auto-phosphorylation, AlphaScreen, read-out: Assay B location 1 IC50
[5] = Homo sapiens, L-363, location 2, L363 cells, P-IKKα levels, read-out: Assay C location 2 IC50
[6] = location 2, AlphaScreen auto-phosphorylation, read-out: Assay B location 2 IC50
[7] = Homo sapiens, L-363, location 1, L363 cells, P-IKKα levels, read-out: Assay C location 1 IC50
[8] = location 1, AlphaScreen auto-phosphorylation, read-out: Assay B location 1 IC50

T1 sequence (Q99558 whole entry): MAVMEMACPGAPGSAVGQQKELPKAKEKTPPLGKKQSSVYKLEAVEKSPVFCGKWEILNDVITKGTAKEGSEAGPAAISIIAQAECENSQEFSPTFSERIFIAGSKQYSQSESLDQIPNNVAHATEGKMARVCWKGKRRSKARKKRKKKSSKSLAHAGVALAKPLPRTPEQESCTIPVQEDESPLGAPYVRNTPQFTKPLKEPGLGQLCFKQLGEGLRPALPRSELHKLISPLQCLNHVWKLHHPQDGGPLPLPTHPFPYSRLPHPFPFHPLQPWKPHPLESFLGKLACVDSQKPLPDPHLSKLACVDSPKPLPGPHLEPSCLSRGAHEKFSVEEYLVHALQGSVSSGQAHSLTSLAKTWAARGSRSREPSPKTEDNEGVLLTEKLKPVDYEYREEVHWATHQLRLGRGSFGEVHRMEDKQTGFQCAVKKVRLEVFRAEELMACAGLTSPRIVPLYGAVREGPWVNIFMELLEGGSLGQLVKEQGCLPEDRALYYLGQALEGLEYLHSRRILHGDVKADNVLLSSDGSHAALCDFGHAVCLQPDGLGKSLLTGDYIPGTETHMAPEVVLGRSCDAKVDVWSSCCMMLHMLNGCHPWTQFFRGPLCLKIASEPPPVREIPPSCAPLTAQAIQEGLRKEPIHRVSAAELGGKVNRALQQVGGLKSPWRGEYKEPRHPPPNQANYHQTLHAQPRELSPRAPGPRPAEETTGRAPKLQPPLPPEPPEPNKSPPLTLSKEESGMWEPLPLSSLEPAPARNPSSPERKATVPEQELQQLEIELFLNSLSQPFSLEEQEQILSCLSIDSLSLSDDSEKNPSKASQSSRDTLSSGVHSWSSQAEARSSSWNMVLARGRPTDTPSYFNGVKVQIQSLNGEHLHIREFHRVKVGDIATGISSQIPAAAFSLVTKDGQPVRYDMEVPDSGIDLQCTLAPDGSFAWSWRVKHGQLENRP

IC50 [1, 5]	IC50 [2, 6]	IC50 [3]	SMILES	further results
–	–	–	COc1cc(N2CCC(O)CC2)c(Cl)cc1Nc1nccc(-c2cnc3c(c2)C(C)(CO)CN3)n1 (single isomer, unassigned) [Compound 16]	IC50 ([1]; location 1, P-IKKα levels in L363 cells, 2 hr treatment, read-out: Assay C location 1 IC50): 0.0191 µM; melting point: > 260 °C; IC50 [2, 4]: 0.0032 µM
–	–	–	COc1cc(N2CC3(CCOCC3)C2)c(Cl)cc1Nc1ncc(Cl)c(-c2cnc3c(c2)C(C)(CO)CN3)n1 (single isomer, unassigned) [Compound 347]	melting point: > 250 °C; IC50 [2, 4]: 0.144 µM
–	–	–	COc1cc(C(=O)NC2CCOCC2)ccc1Nc1ncc(F)c(-c2cnc3c(c2)C(C)(CO)CN3)n1 (single isomer, unassigned) [Compound 349]	melting point: > 250 °C; IC50 [2, 4]: 0.0036 µM
–	–	–	COc1cc(C(=O)NC2CCOCC2)ccc1Nc1ncc(Cl)c(-c2cnc3c(c2)C(C)(CO)CN3)n1 (single isomer, unassigned) [Compound 350]	melting point: > 250 °C; IC50 [2, 4]: 0.295 µM
0.243 µM	0.0025 µM	0.02 µM	CC(=O)NCc1ccc(Nc2nccc(-c3cnc4c(c3)C(C)(C)CN4)n2)c(C)c1 [Compound 44]	–
~0.129 µM	0.0028 µM	0.0033 µM	COc1cc(Nc2nccc(-c3cnc4c(c3)C(C)(CO)CN4)n2)cc(OC)c1OC (stereo not drawn) [Compound 46]	–
0.0437 µM	0.0018 µM	0.0062 µM	COc1cc(CNC(C)=O)c(C)c(Nc2nccc(-c3cnc4c(c3)C(C)(C)CN4)n2)c1 [Compound 49]	IC50 [1, 7]: 0.549 µM
0.0813 µM	0.0012 µM	0.0074 µM	COc1cc(C(=O)NC2CCOCC2)ccc1Nc1nccc(-c2cnc3c(c2)C(C)(C)CN3)n1 [Compound 50]	–
0.373 µM	0.0034 µM	0.0089 µM	Cc1cc(C(=O)N2CCC(O)CC2)ccc1Nc1nccc(-c2cnc3c(c2)C(C)(C)CN3)n1 [Compound 54]	IC50 [1, 7]: 0.263 µM
0.288 µM	0.0033 µM	0.0324 µM	Cc1cc(C(=O)NC2CN(C)C2)ccc1Nc1nccc(-c2cnc3c(c2)C(C)(C)CN3)n1 [Compound 55]	–
0.407 µM	0.0012 µM	0.0055 µM	COc1cc(C(=O)NC2CCN(C)CC2)ccc1Nc1nccc(-c2cnc3c(c2)C(C)(C)CN3)n1 [Compound 60]	–
0.0437 µM	0.0014 µM	0.0055 µM	COc1cc(CNC(C)=O)ccc1Nc1nccc(-c2cnc3c(c2)C(C)(C)CN3)n1 [Compound 62]	–
0.0741 µM	0.0013 µM	0.0118 µM	COC1CCN(C(=O)c2ccc(Nc3nccc(-c4cnc5c(c4)C(C)(C)CN5)n3)c(C)c2)CC1 [Compound 79]	IC50 [1, 7]: 0.661 µM
0.589 µM	0.0026 µM	0.0148 µM	Cc1cc(C(=O)N2CCN(C)CC2)ccc1Nc1nccc(-c2cnc3c(c2)C(C)(C)CN3)n1 [Compound 81]	–
0.282 µM	0.0027 µM	0.0246 µM	CC1(C)CNc2ncc(-c3ccnc(Nc4ccc(C(=O)NC5CCOCC5)cc4OC(F)F)n3)cc21 [Compound 82]	–
0.049 µM	0.0048 µM	0.0054 µM	COc1cc(CNC(C)=O)c(C)c(Nc2nccc(-c3cnc4c(c3)C(C)(CO)CN4)n2)c1 (stereo not drawn) [Compound 84]	–
0.0676 µM	0.003 µM	0.0141 µM	CC(=O)NCc1ccc(Nc2nccc(-c3cnc4c(c3)C(C)(C)CN4)n2)c(OC(F)F)c1 [Compound 85]	–
0.549 µM	0.0112 µM	0.0151 µM	CC(=O)NCc1ccc(Nc2nccc(-c3cnc4c(c3)C(C)(CO)CN4)n2)c(C)c1 (stereo not drawn) [Compound 86]	–

IC50 [1, 5]	IC50 [2, 6]	IC50 [3]	SMILES	further results
1.15 µM	0.0135 µM	0.0214 µM	Cc1cc(C(=O)NC2CCOCC2)ccc1Nc1nccc(-c2cnc3c(c2)C(C)(CO)CN3)n1 (stereo not drawn) [Compound 87]	IC50 [2, 8]: 0.0178 µM
5.01 µM	0.0204 µM	0.0631 µM	Cc1cc(C(=O)NC2CN(C)C2)ccc1Nc1nccc(-c2cnc3c(c2)C(C)(CO)CN3)n1 (stereo not drawn) [Compound 89]	–
0.759 µM	0.0051 µM	0.0148 µM	COc1cc(Nc2nccc(-c3cnc4c(c3)C(C)(CO)CN4)n2)c(C)c(C(=O)NC2CN(C)C2)c1 (stereo not drawn) [Compound 90]	–
0.309 µM	0.0055 µM	0.0102 µM	Cc1cc(C(=O)N2CCC(O)CC2)ccc1Nc1nccc(-c2cnc3c(c2)C(C)(CO)CN3)n1 (stereo not drawn) [Compound 109]	–
0.427 µM	0.0078 µM	0.0093 µM	Cc1cc(C(=O)N2CCOCC2)ccc1Nc1nccc(-c2cnc3c(c2)C(C)(CO)CN3)n1 (stereo not drawn) [Compound 120]	–
–	0.0072 µM	0.0112 µM	COC1CCN(C(=O)c2ccc(Nc3nccc(-c4cnc5c(c4)C(C)(CO)CN5)n3)c(C)c2)CC1 (stereo not drawn) [Compound 121]	IC50 ([1]; location 2, L363 cells, P-IKKα levels, read-out: Assay C location 2 IC50): 0.38 µM
1.23 µM	–	0.0123 µM	Cc1cc(C(=O)NC2CCOCC2)ccc1Nc1nccc(-c2cnc3c(c2)C(C)(CCC#N)CN3)n1 (stereo not drawn) [Compound 125]	IC50 [2, 8]: 0.0316 µM
0.537 µM	–	0.0087 µM	Cc1cc(C(=O)NC2CCOCC2)ccc1Nc1nccc(-c2cnc3c(c2)C(C)(CC#N)CN3)n1 (stereo not drawn) [Compound 126]	IC50 [2, 8]: 0.0148 µM
0.661 µM	0.0107 µM	0.0102 µM	COc1cc(C(=O)NC2CCN(C)CC2)ccc1Nc1nccc(-c2cnc3c(c2)C(C)(CO)CN3)n1 (stereo not drawn) [Compound 130]	–
0.0708 µM	0.0009 µM	0.0045 µM	COc1cc(C(=O)N2CCC(OC)CC2)ccc1Nc1nccc(-c2cnc3c(c2)C(C)(CO)CN3)n1 (stereo not drawn) [Compound 131]	–
0.513 µM	0.0031 µM	0.0033 µM	COc1cc(C(=O)N2CCS(=O)(=O)CC2)ccc1Nc1nccc(-c2cnc3c(c2)C(C)(CO)CN3)n1 (stereo not drawn) [Compound 132]	IC50 [2, 8]: 0.01 µM
0.776 µM	0.0044 µM	0.0039 µM	Cc1cc(C(=O)N2CCS(=O)(=O)CC2)ccc1Nc1nccc(-c2cnc3c(c2)C(C)(CO)CN3)n1 (stereo not drawn) [Compound 134]	–
–	–	–	COc1cc(N2CC3(CCOCC3)C2)c(Cl)cc1Nc1ncc(F)c(-c2cnc3c(c2)C(C)(CO)CN3)n1 (stereo not drawn) [Compound 345]	melting point: > 250 °C; IC50 [2, 4]: 0.0191 µM
–	–	–	COc1ccc(Cl)cc1Nc1nccc(-c2cnc3c(c2)C(C)(C)CN3)n1 [Compound 353]	melting point: 210 °C; IC50 [2, 4]: 0.0724 µM
–	–	–	COc1ccc(Cl)cc1Nc1nccc(-c2cnc3c(c2)C(C)(CO)CN3)n1 (stereo not drawn) [Compound 354]	melting point: 236 °C; IC50 [2, 4]: 0.003 µM
–	–	–	Cc1ccc(Cl)cc1Nc1nccc(-c2cnc3c(c2)C(C)(CO)CN3)n1 (stereo not drawn) [Compound 355]	melting point: 221 °C; IC50 [2, 4]: 0.0025 µM
–	–	–	COCCOc1ccc(Cl)cc1Nc1nccc(-c2cnc3c(c2)C(C)(CO)CN3)n1 (stereo not drawn) [Compound 356]	melting point: 208 °C; IC50 [2, 4]: 0.0246 µM
0.912 µM	0.0339 µM	0.0776 µM	CC(=O)NCc1cccc(Nc2nccc(-c3cnc4c(c3)C(C)(CO)CN4)n2)c1C (stereo not drawn) [Compound 360]	–
